Measurements taken from ChEMBL document CHEMBL1681645, “Pyrrolo[1,2-f]triazines as JAK2 inhibitors: achieving potency and selectivity for JAK2 over JAK3” (Bioorg Med Chem Lett, 2011).
pIC50: −log10 of the molar value.

Assays:
[1] = target: Tyrosine-protein kinase JAK2 (Homo sapiens, UniProt O60674); experiment: Inhibition of JAK2 after 60 mins
[2] = Antiproliferative activity against human SET2 cells assessed as inhibition of [3H]thymidine incorporation after 72 hrs; format: functional, cell-based; details: SET-2
[3] = Selectivity ratio of IC50 for JAK3 over IC50 for JAK2
[4] = Selectivity ratio of IC50 for JAK1 over IC50 for JAK2
[5] = target: T1, Tyrosine-protein kinase JAK3 (Homo sapiens, UniProt P52333); experiment: Inhibition of JAK3 after 60 mins
T1 sequence (P52333 whole entry): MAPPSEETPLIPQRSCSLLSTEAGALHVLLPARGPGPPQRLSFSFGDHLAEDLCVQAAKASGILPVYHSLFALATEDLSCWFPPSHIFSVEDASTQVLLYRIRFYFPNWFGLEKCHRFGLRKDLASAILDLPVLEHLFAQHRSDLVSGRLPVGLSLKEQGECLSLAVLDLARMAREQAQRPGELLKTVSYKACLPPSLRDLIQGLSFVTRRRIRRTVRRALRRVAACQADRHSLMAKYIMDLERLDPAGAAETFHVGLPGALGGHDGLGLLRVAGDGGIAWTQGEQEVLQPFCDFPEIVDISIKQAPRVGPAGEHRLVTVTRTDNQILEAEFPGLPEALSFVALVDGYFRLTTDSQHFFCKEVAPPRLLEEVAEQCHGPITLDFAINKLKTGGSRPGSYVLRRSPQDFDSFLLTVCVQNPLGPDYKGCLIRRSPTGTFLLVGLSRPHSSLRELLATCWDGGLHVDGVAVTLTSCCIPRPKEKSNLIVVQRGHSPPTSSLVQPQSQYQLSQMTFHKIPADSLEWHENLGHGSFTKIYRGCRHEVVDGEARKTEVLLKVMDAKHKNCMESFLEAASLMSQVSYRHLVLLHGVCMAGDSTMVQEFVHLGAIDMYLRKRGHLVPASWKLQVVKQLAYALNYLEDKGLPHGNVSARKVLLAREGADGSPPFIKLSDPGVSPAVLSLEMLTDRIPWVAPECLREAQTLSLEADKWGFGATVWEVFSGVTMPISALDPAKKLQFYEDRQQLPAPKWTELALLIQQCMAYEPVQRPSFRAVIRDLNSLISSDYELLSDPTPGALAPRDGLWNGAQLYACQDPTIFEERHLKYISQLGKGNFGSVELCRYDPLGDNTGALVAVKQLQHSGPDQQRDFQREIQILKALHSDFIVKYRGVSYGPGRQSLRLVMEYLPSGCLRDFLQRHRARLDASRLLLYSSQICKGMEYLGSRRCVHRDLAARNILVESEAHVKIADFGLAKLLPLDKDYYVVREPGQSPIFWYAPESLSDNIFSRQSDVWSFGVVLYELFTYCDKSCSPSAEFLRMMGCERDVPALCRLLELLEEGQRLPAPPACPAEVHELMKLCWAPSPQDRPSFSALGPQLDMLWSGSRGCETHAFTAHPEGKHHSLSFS

Tyrosine-protein kinase JAK2, sequence (O60674 whole entry): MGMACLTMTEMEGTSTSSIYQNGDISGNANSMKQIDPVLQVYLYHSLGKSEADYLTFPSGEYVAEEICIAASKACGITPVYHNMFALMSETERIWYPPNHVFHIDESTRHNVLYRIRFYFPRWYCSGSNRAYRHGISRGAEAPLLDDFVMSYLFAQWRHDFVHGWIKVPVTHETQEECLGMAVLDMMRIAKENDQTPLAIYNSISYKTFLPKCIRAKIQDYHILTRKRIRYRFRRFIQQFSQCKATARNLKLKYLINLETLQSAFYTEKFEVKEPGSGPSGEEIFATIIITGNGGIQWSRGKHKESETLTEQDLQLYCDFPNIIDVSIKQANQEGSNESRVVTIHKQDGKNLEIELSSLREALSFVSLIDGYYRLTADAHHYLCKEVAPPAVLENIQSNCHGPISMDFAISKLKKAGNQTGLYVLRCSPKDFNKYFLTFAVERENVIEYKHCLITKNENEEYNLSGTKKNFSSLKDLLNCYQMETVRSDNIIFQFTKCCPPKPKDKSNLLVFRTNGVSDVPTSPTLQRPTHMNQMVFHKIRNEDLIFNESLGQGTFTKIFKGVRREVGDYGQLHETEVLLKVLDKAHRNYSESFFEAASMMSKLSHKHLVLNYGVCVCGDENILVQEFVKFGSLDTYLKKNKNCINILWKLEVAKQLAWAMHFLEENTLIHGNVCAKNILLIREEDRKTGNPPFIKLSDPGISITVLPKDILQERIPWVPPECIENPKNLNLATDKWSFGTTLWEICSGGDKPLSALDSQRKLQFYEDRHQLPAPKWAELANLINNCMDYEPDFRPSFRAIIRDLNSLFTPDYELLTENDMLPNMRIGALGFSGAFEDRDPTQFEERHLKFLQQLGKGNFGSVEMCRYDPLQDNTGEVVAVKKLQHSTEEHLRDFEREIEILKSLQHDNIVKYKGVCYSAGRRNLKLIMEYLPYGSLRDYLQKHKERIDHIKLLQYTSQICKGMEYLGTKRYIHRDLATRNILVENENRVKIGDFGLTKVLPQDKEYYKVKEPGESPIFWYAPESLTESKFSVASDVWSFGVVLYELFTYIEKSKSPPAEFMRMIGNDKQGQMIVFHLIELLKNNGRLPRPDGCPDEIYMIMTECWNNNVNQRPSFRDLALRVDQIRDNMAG

Row | SMILES | pIC50 [1] | Ratio IC50 [3] | Ratio IC50 [4] | pIC50 [5] | pIC50 [2]
1 | CC(C)n1cnc(Nc2nc(N3CCN(C(=O)Cc4ccccc4)CC3)nn3cccc23)c1 | 6.96 |  |  |  | 6.17
2 | O=C(NC1CC1)c1cc(Nc2nc(N3CCN(C(=O)Cc4ccccc4)CC3)nn3cccc23)n[nH]1 | 5.57 |  |  |  | 5.85
3 | Cc1ccc(C(=O)N2CCN(c3nc(Nc4cc(C)[nH]n4)c4cccn4n3)CC2)cc1 | 8.35 |  |  |  | 7.23
4 | Cc1cc(Nc2nc(N3CCN(C(=O)N(C)C)CC3)nn3cccc23)[nH]n1 | 8.03 |  |  |  | 
5 | CC1(c2cc(Nc3nc(N4CCN(C(=O)Cc5ccccc5)CC4)nn4cccc34)n[nH]2)CC1 | 7.66 |  |  |  | 6.01
6 | Cc1cc(Nc2nc(N3CCN(C(=O)Cc4ccccc4F)CC3)nn3cccc23)n[nH]1 | 8.34 |  |  |  | 6.77
7 | CCC(=O)N1CCN(c2nc(Nc3cc(C)[nH]n3)c3cccn3n2)CC1 | 7.66 | 5 |  |  | 
8 | Cc1cc(Nc2nc(N3CCN(C(=O)N(C)C)CC3)nn3cccc23)n[nH]1 |  | 11 | 5 |  | 
9 | Cc1cc(Nc2nc(N3CCN(C(=O)Cc4ccccc4C)CC3)nn3cccc23)n[nH]1 | 8.28 |  |  |  | 6.92
10 | Cc1cc(Nc2nc(N3CCNCC3)nn3cccc23)n[nH]1 |  | 15 | 16 |  | 
11 | Cc1cc(Nc2nc(N3CCN(C(=O)c4ccccc4C#N)CC3)nn3cccc23)n[nH]1 | 8.22 |  |  |  | 6.85
12 | COc1cc(F)c(CC(=O)N2CCN(c3nc(Nc4cc(C)n[nH]4)c4cccn4n3)CC2)c(F)c1 |  |  |  |  | 6.96
13 | Cc1cc(Nc2nc(N3CCN(C(=O)c4ccc(C#N)cc4)CC3)nn3cccc23)n[nH]1 | 8.32 |  |  |  | 8.21
14 | O=C(Cc1ccccc1)N1CCN(c2nc(Nc3nccs3)c3cccn3n2)CC1 | 7.23 | 37 | 2.6 |  | 5.92
15 | Cc1nnc(Nc2nc(N3CCN(C(=O)Cc4ccccc4)CC3)nn3cccc23)s1 | 4.85 | 1.3 |  | 4.74 | 6.16
16 | Cc1cc(Nc2nc(N3CCN(C(=O)c4ccccc4Cl)CC3)nn3cccc23)n[nH]1 | 8.14 |  |  |  | 7.15
17 | O=C(Cc1ccccc1)N1CCN(c2nc(Nc3ccccn3)c3cccn3n2)CC1 | 6.72 | 41 | 11 |  | 

Continued by rising pIC50 [1], values first:

Row | pIC50 [1] | Ratio IC50 [3] | Ratio IC50 [4] | pIC50 [5] | SMILES | pIC50 [2]
18 | 8.46 |  |  |  | COc1ccccc1C(=O)N1CCN(c2nc(Nc3cc(C)[nH]n3)c3cccn3n2)CC1 | 7.05
19 | 8.52 |  |  |  | Cc1cc(Nc2nc(N3CCN(C(=O)c4ccccc4C)CC3)nn3cccc23)n[nH]1 | 6.80
20 | 8.55 |  |  |  | Cc1cc(Nc2nc(N3CCN(C(=O)Cc4ccccc4)CC3)nn3cccc23)n[nH]1 | 6.43
21 | 8.62 |  |  |  | Cc1cc(Nc2nc(N3CCN(C(=O)Cc4ccc(F)cc4F)CC3)nn3cccc23)n[nH]1 | 7.27
22 | 8.66 |  |  |  | Cc1cc(Nc2nc(N3CCN(C(=O)c4ccccc4)CC3)nn3cccc23)n[nH]1 | 7.21
23 | 8.68 |  |  |  | Cc1cc(Nc2nc(N3CCN(C(=O)c4ccccc4Br)CC3)nn3cccc23)n[nH]1 | 6.74
24 | 8.70 |  |  |  | Cc1cc(Nc2nc(N3CCN(C(=O)CCc4ccccc4)CC3)nn3cccc23)n[nH]1 | 7.12
25 | 8.92 |  |  |  | COc1ccc(CC(=O)N2CCN(c3nc(Nc4cc(C)[nH]n4)c4cccn4n3)CC2)cc1 | 6.20
26 | 8.96 |  |  |  | Cc1cc(Nc2nc(N3CCN(C(=O)c4ccccc4S(C)(=O)=O)CC3)nn3cccc23)n[nH]1 | 6.72
27 | 8.96 |  |  |  | Cc1ccc(CC(=O)N2CCN(c3nc(Nc4cc(C)[nH]n4)c4cccn4n3)CC2)cc1 | 6.51
28 | 9.00 | 67 | 3.8 |  | Cc1cc(Nc2nc(N3CCN(C(=O)Cc4c(F)cc(Cl)cc4F)CC3)nn3cccc23)n[nH]1 | 7.10
29 | 9.05 | 25 | 6.5 |  | Cc1cc(Nc2nc(N3CCN(C(=O)Cc4ccc(F)cc4)CC3)nn3cccc23)n[nH]1 | 7.27
30 | 9.22 |  |  |  | Cc1cc(Nc2nc(N3CCN(C(=O)Cc4ccc(Cl)cc4)CC3)nn3cccc23)n[nH]1 | 6.23
